Where two headings read alike, the source gives them in different places.
What was measured:
[1] = biological target: GlunN1/GluN2A glutamate receptors (Homo sapiens (Human), UniProt Q05586+Q12879); assay: Whole-cell patch clamp of mammalian cells (Ionworks Barracuda), positive allosteric modulation, GluN1/GluN2A; format: cell-based
How it was run: (§1)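 Perforated-patch whole-cell recording, holding −70 mV, −40 mV during application; Cs-based internal pH 7.2, external with 5 mM CaCl2 pH 7.4. Test article pre-applied alone 5 min, then co-applied with EC20 L-glutamate plus 30 μM glycine. EC50 from Hill fit of % activation over the EC20 current.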

[2] = biological target: GluN2B glutamate receptors (Homo sapiens (Human), UniProt Q05586+Q13224); assay: Whole-cell patch clamp of mammalian cells (Ionworks Barracuda), positive allosteric modulation, GluN2B; format: cell-based; settings: for Emax: read-out: Avg Emax 2B (%)
How it was run: as §1

[3] = HEK293 cells, % potentiation of current elicited with EC20 L-glutamate and 30 μM glycine, read-out: Avg Emax 2A (%)
[4] = HEK293 cells, co-application with EC20 L-glutamate and 30 μM glycine, 8-point concentration-response, read-out: Avg EC50 2A
[5] = % potentiation of current elicited with EC20 L-glutamate and 30 μM glycine
[6] = co-application with EC20 L-glutamate and 30 μM glycine, 8-point concentration-response, read-out: Avg EC50 2B
[7] = HEK293, read-out: Avg Emax 2A (%)

GlunN1/GluN2A glutamate receptors, sequence (Q12879 23-1464, other chains not shown): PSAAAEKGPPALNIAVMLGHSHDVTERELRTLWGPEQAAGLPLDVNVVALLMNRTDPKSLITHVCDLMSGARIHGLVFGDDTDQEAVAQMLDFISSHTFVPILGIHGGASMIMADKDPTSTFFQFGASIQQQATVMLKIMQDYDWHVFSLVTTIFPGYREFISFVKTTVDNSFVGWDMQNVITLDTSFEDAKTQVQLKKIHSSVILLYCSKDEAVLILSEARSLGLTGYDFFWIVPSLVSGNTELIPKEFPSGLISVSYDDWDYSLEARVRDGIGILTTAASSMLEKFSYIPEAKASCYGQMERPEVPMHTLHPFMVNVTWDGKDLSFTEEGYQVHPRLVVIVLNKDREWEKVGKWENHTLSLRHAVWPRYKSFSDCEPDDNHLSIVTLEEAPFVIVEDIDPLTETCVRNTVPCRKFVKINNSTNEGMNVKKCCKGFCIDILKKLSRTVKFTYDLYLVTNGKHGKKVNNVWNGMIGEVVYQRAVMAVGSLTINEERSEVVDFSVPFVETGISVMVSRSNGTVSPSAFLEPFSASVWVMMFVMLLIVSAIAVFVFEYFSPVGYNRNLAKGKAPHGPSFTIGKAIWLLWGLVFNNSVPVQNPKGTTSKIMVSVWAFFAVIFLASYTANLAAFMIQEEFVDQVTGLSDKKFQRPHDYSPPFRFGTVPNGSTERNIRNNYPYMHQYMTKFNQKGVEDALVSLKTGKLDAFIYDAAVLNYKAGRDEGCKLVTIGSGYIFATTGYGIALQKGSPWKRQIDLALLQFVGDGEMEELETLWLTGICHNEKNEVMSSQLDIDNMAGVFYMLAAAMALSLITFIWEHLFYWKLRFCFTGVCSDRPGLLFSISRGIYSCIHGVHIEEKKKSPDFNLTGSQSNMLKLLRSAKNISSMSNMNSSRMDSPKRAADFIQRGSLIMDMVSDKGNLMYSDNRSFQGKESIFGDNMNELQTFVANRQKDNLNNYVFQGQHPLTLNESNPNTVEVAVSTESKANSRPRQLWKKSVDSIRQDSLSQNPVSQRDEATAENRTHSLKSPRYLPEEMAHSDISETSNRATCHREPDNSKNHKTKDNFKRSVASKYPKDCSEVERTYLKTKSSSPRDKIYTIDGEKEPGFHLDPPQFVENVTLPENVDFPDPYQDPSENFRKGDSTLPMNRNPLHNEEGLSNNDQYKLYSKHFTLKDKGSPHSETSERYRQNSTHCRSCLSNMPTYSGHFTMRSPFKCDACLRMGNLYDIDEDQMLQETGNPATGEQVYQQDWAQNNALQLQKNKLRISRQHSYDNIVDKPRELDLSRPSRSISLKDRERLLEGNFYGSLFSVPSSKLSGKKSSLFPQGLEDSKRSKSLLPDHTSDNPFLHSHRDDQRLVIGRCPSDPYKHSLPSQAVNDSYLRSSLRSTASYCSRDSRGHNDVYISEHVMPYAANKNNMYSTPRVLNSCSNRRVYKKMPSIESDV
GluN2B glutamate receptors, sequence (Q13224 27-1484, other chains not shown): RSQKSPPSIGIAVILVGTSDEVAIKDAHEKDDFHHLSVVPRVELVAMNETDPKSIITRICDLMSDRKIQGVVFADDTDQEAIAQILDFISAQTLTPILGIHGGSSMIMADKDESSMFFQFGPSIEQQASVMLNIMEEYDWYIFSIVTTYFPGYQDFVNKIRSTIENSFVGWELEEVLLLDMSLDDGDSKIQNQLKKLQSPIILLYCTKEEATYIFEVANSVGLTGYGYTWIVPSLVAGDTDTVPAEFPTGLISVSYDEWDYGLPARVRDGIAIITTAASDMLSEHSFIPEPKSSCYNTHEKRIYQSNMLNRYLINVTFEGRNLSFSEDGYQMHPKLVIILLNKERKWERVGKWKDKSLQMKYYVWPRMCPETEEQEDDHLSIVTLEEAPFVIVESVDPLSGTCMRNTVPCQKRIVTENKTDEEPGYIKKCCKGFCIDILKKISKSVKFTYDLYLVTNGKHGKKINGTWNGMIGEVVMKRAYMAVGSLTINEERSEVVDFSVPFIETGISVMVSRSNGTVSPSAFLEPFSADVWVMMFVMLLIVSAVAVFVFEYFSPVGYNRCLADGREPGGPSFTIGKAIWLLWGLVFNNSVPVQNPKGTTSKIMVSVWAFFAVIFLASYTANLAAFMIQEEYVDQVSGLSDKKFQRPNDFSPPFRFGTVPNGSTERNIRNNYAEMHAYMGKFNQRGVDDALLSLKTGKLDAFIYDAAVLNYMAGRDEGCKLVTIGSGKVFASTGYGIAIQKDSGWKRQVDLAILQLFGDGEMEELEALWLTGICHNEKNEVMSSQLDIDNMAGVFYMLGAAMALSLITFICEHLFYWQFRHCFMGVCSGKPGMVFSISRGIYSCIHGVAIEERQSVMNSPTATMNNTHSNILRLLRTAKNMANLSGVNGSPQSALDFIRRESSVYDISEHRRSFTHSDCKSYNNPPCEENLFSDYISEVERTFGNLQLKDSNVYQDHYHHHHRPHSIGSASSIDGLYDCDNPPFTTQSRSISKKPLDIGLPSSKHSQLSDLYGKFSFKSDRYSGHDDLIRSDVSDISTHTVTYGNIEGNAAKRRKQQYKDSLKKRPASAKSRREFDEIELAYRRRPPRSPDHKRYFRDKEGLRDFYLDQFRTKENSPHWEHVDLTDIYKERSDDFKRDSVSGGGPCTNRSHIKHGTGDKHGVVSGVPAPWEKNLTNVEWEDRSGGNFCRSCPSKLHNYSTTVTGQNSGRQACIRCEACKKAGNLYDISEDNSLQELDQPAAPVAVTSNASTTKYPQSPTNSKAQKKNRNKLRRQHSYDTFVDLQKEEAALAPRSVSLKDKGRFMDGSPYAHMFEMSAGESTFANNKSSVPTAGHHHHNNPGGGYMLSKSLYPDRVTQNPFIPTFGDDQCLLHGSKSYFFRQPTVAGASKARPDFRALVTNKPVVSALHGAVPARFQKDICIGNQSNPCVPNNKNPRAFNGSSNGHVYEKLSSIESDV

Row | Structure (SMILES) | EC50 [1] [nM] | EC50 [2] [nM] | Emax [1, 3] [%] | EC50 [1, 4] [nM] | Emax [2, 5] [%] | EC50 [2, 6] [nM] | Emax [1, 7] [%] | Emax [2] [%]
1 | C[C@H](O)CC[C@@H](C)[C@H]1CC[C@H]2[C@@H]3CC[C@H]4C[C@](O)(C(F)(F)F)CC[C@]4(C)[C@H]3CC[C@]12C [Compound 6] | 248 | 733 |  |  |  |  |  | 
2 | CC[C@]1(O)CC[C@H]2C(=CC[C@@H]3[C@@H]2CC[C@]2(C)[C@@H]([C@H](C)CCC[C@@H](O)C(F)(F)F)CC[C@@H]32)C1 [Compound 10456] |  |  | 231 | 240 | 266 | 209 |  | 
3 | CC[C@]1(O)CC[C@H]2C(=CC[C@@H]3[C@@H]2CC[C@]2(C)[C@@H]([C@H](C)CC[C@@H](O)C(C)C)CC[C@@H]32)C1 [Compound 8463] | 102 | 85.1 |  |  |  |  |  | 
4 | C[C@H](CCC[C@@H](O)C(C)(C)C)[C@H]1CC[C@H]2[C@@H]3CC[C@H]4C[C@](O)(C(F)(F)F)CC[C@]4(C)[C@H]3CC[C@]12C [Compound 12055] |  |  | 114 |  | 185 |  |  | 
5 | CO[C@H]1CC[C@@](O)(CC[C@@H](C)[C@H]2CC[C@H]3[C@@H]4CC[C@H]5C[C@](O)(C(F)(F)F)CC[C@]5(C)[C@H]4CC[C@]23C)CC1 [Compound 4555] | > 10000 | > 10000 | 22.8 |  | 31.9 |  |  | 
6 | CC[C@]1(O)CC[C@@]2(C)C(=CC[C@H]3[C@@H]4CC[C@H]([C@H](C)CC[C@@H](O)c5cccnc5)[C@@]4(C)CC[C@@H]32)C1 [Compound 6459] | 1330 | 909 | 156 |  | 184 |  |  | 
7 | C[C@H](CCC1(O)CCCCC1)[C@H]1CC[C@H]2[C@@H]3CC[C@H]4C[C@](O)(C(F)(F)F)CC[C@]4(C)[C@H]3CC[C@]12C [Compound 4023] | 516 | 406 | 322 |  | 418 |  |  | 
8 | C[C@H](CCCO)[C@H]1CC[C@H]2[C@@H]3CC[C@H]4C[C@](O)(C(F)(F)F)CC[C@]4(C)[C@H]3CC[C@]12C [Compound 2499] | 768 | 751 | 180 |  | 238 |  |  | 
9 | C[C@H](CCC(C)(O)c1ccccc1)[C@H]1CC[C@H]2[C@@H]3CC=C4C[C@@](C)(O)CC[C@]4(C)[C@H]3CC[C@]12C (stereo partly shown) [Compound 456] |  |  |  |  |  |  | 53.4 | 74.8
10 | C[C@H](CCC[C@H](O)C(F)(F)F)[C@H]1CC[C@H]2[C@@H]3CC[C@H]4C[C@](O)(C(F)(F)F)CC[C@]4(C)[C@H]3CC[C@]12C [Compound 11934] |  |  | 113 |  | 70 |  |  | 
11 | CC[C@]1(O)CC[C@@]2(C)C(=CC[C@H]3[C@@H]4CC[C@H]([C@H](C)CC[C@H](O)c5cccc(F)c5)[C@@]4(C)CC[C@@H]32)C1 [Compound 6896] | 519 | 1680 | 216 |  | 402 |  |  | 
12 | CC[C@]1(O)CC[C@H]2C(=CC[C@@H]3[C@@H]2CC[C@]2(C)[C@@H]([C@H](C)CCC[C@H](C)O)CC[C@@H]32)C1 [Compound 9911] |  |  | 234 |  | 326 |  |  | 
13 | CC[C@@H](O)CC[C@@H](C)[C@H]1CC[C@H]2[C@@H]3CC=C4C[C@](O)(CC)CC[C@@H]4[C@H]3CC[C@]12C [Compound 8584] | 332 | 244 | 284 |  | 363 |  |  | 
14 | CC[C@]1(O)CC[C@H]2[C@@H](CC[C@@H]3[C@@H]2CC[C@]2(C)[C@@H]([C@H](C)CCC4(O)CC4)CC[C@@H]32)C1 [Compound 8127] | 543 | 571 | 136 |  | 211 |  |  | 
15 | C[C@H](CCC(O)c1ccccc1)[C@H]1CC[C@H]2[C@@H]3CC=C4C[C@@](C)(O)CC[C@]4(C)[C@H]3CC[C@]12C (stereo partly shown) [Compound 356] | 415 | 923 | 59.6 |  | 156 |  |  | 
16 | C[C@H](CCC(O)C1CCC1)[C@H]1CC[C@H]2[C@@H]3CC[C@H]4C[C@](O)(C(F)(F)F)CC[C@]4(C)[C@H]3CC[C@]12C (stereo partly shown) [Compound 7] |  |  | 516 | 300 | 484 | 287 |  | 
17 | CC[C@]1(O)CC[C@@]2(C)C(=CC[C@H]3[C@@H]4CC[C@H]([C@H](C)CCC(O)c5ccccn5)[C@@]4(C)CC[C@@H]32)C1 (stereo partly shown) [Compound 6457] | 732 | 524 | 198 |  | 168 |  |  | 

Row | Structure (SMILES) | EC50 [1] [nM] | EC50 [2] [nM] | Emax [1, 3] [%] | EC50 [1, 4] [nM] | Emax [2, 5] [%] | EC50 [2, 6] [nM] | Emax [1, 7] [%] | Emax [2] [%]
18 | CC(C)[C@H]1CC[C@@](O)(CC[C@@H](C)[C@H]2CC[C@H]3[C@@H]4CC[C@H]5C[C@](O)(C(F)(F)F)CC[C@]5(C)[C@H]4CC[C@]23C)CC1 [Compound 4258] | 1030 | 640 | 184 |  | 242 |  |  | 
19 | CC[C@]1(O)CC[C@@]2(C)C(=CC[C@H]3[C@@H]4CC[C@H]([C@H](C)CC[C@H](O)c5ccccc5F)[C@@]4(C)CC[C@@H]32)C1 (single isomer, unassigned) [Compound 7281] | 248 | 303 |  |  |  |  |  | 
20 | CC[C@]1(O)CC[C@H]2C(=CC[C@@H]3[C@@H]2CC[C@]2(C)[C@@H]([C@H](C)CCC[C@@H](C)O)CC[C@@H]32)C1 [Compound 9792] |  |  | 64.5 |  | 58.2 |  |  | 
21 | CC[C@]1(O)CC[C@H]2C(=CC[C@@H]3[C@@H]2CC[C@]2(C)[C@@H]([C@H](C)CCC(C)(C)O)CC[C@@H]32)C1 [Compound 780] |  |  | 132 | 341 | 170 | 263 |  | 
22 | C[C@H](CC[C@]1(O)CCOC1)[C@H]1CC[C@H]2[C@@H]3CC[C@H]4C[C@](O)(C(F)(F)F)CC[C@]4(C)[C@H]3CC[C@]12C [Compound 2707] |  |  | 113 | 119 | 259 | 103 |  | 
23 | CO[C@H]1CC[C@](O)(CC[C@@H](C)[C@H]2CC[C@H]3[C@@H]4CC[C@H]5C[C@](O)(C(F)(F)F)CC[C@]5(C)[C@H]4CC[C@]23C)CC1 [Compound 4585] | 215 | 166 | 72.2 |  | 123 |  |  | 
24 | CC[C@]1(O)CC[C@H]2C(=CC[C@@H]3[C@@H]2CC[C@]2(C)[C@@H]([C@H](C)CCCC(C)(C)O)CC[C@@H]32)C1 [Compound 194] |  |  | 162 | 200 | 192 |  |  | 
25 | C[C@H](CCC(O)C(C)(C)C)[C@H]1CC[C@H]2[C@@H]3CC=C4C[C@](O)(C(F)(F)F)CC[C@]4(C)[C@H]3CC[C@]12C (stereo partly shown) [Compound 2500] | 63.3 | 91.1 |  |  |  |  |  | 
26 | CC(C)[C@H]1CC[C@](O)(CC[C@@H](C)[C@H]2CC[C@H]3[C@@H]4CC[C@H]5C[C@](O)(C(F)(F)F)CC[C@]5(C)[C@H]4CC[C@]23C)CC1 [Compound 4259] | > 10000 | > 10000 | -13.3 |  | 24.3 |  |  | 
27 | C[C@H](CC[C@@H](C)O)[C@H]1CC[C@H]2[C@@H]3CC[C@H]4C[C@](O)(C(F)(F)F)CC[C@]4(C)[C@H]3CC[C@]12C [Compound 2285] | 764 | 494 | 205 |  | 220 |  |  | 
28 | C[C@H](CCC1(O)CCC(C)(C)CC1)[C@H]1CC[C@H]2[C@@H]3CC[C@H]4C[C@](O)(C(F)(F)F)CC[C@]4(C)[C@H]3CC[C@]12C [Compound E-2817] |  |  | 29.9 |  | 20.4 |  |  | 
29 | CC[C@]1(O)CC[C@H]2C(=CC[C@@H]3[C@@H]2CC[C@]2(C)[C@@H]([C@H](C)CCC[C@@H](O)C(C)(C)C)CC[C@@H]32)C1 [Compound 10042] | > 10000 | 1880 | 65.9 |  | 113 |  |  | 
30 | CC[C@H]1CC[C@@](O)(CC[C@@H](C)[C@H]2CC[C@H]3[C@@H]4CC[C@H]5C[C@](O)(C(F)(F)F)CC[C@]5(C)[C@H]4CC[C@]23C)CC1 [Compound 4475] | 461 | 266 | 364 |  | 355 |  |  | 
31 | CC[C@]1(O)CC[C@H]2C(=CC[C@@H]3[C@@H]2CC[C@]2(C)[C@@H]([C@H](C)CCC4(O)CC4)CC[C@@H]32)C1 [Compound 8245] | 525 | 268 | 73 |  | 120 |  |  | 
32 | CC[C@]1(O)CC[C@H]2C(=CC[C@@H]3[C@@H]2CC[C@]2(C)[C@@H]([C@H](C)CC[C@@H](O)C(C)(C)C)CC[C@@H]32)C1 [Compound 8379] | 73.4 | 78.1 |  |  |  |  | 252 | 359
33 | CC[C@]1(O)CC[C@H]2C(=CC[C@@H]3[C@@H]2CC[C@]2(C)[C@@H]([C@H](C)CC[C@H](O)C(C)(C)C)CC[C@@H]32)C1 [Compound 8378] | 124 | 208 |  |  |  |  | 195 | 259
34 | CC[C@]1(O)CC[C@H]2[C@@H](CC[C@@H]3[C@@H]2CC[C@]2(C)[C@@H]([C@H](C)CCC(C)(C)O)CC[C@@H]32)C1 [Compound 679] |  |  | 105 | 5110 | 172 | 280 |  | 
